How the values were obtained:
wild oat = test: Test B pre/postemergence wild oat; format: in vivo, Avena fatua
Method in brief: (§1)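 Response is a visual 0-to-10 score relative to untreated plants, where 0 means no effect and 10 means complete control, taken twelve to sixteen days after application. Treatments went onto soil at planting and onto foliage of 1- to 4-leaf plants, using a surfactant-containing non-phytotoxic solvent.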

crabgrass = test: Test B pre/postemergence crabgrass; format: in vivo, Digitaria sanguinalis
Method in brief: as §1

wheat = test: Test B pre/postemergence wheat; format: in vivo, Triticum aestivum
Method in brief: as §1

rice = test: Test B flood test rice; format: in vivo, Oryza sativa
Method in brief: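 Read-out is a visual response score from 0 (no effect) to 10 (complete control), assigned by comparison with untreated controls. Treatment was applied at the 2-leaf stage, and plants stayed in the greenhouse for twelve to sixteen days before scoring.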

[1] = Postemergence, Rate 250 g/ha, scale 0 to 10
[2] = Postemergence, Rate 500 g/ha, scale of 0 to 10 where 0 is no effect and 10 is complete control
[3] = Preemergence, Rate 62 g/ha, scale of 0 to 10 where 0 is no effect and 10 is complete control
[4] = Preemergence, Rate 125 g/ha, scale of 0 to 10 where 0 is no effect and 10 is complete control
[5] = Preemergence, Rate 250 g/ha, scale 0 to 10, 0 is no effect, 10 is complete control
[6] = Preemergence, Rate 500 g/ha, scale 0 to 10, 0 is no effect, 10 is complete control
[7] = Rate 62 g/ha, Postemergence, scale 0 to 10 (0 no effect, 10 complete control)
[8] = Rate 125 g/ha, Postemergence, scale 0 to 10, 0 is no effect, 10 is complete control
[9] = Rate 500 g/ha, Pre-emergence, flood test species, scale 0 to 10 (0 no effect, 10 complete control)
[10] = Postemergence, Rate 125 g/ha, scale of 0 to 10 where 0 is no effect and 10 is complete control
[11] = Preemergence, Rate 62 g/ha, scale 0 to 10 (0 no effect, 10 complete control)
[12] = Preemergence, Rate 125 g/ha, 0 is no effect, 10 is complete control
[13] = Preemergence, Rate 500 g/ha, scale 0 to 10 (0 no effect, 10 complete control)
[14] = Rate 62 g/ha, Postemergence, scale of 0 to 10 where 0 is no effect and 10 is complete control
[15] = Rate 250 g/ha, Postemergence, scale 0 to 10, 0 is no effect, 10 is complete control
[16] = Rate 500 g/ha, Postemergence, scale 0 to 10
[17] = Preemergence, Rate 250 g/ha, scale of 0 to 10 where 0 is no effect and 10 is complete control
[18] = Preemergence, Rate 500 g/ha, scale of 0 to 10 where 0 is no effect and 10 is complete control
[19] = Rate 125 g/ha, Postemergence, scale of 0 to 10 where 0 is no effect and 10 is complete control
[20] = Rate 250 g/ha, Postemergence, scale of 0 to 10 where 0 is no effect and 10 is complete control
[21] = Postemergence, Rate 62 g/ha, scale 0 to 10, 0 is no effect, 10 is complete control
[22] = Postemergence, Rate 250 g/ha, scale 0 to 10, 0 no effect, 10 complete control
[23] = Preemergence, Rate 125 g/ha, scale 0 to 10 (0 no effect, 10 complete control)
[24] = Preemergence, Rate 500 g/ha, scale 0 (no effect) to 10 (complete control)
[25] = Rate 125 g/ha, Postemergence, scale 0 to 10, 0 no effect, 10 complete control
[26] = Rate 500 g/ha, Postemergence, scale 0 to 10, 0 no effect, 10 complete control
[27] = Preemergence, Rate 62 g/ha, scale 0 to 10, 0 is no effect, 10 is complete control

CC(C)N(C(=O)n1oc(=O)n(C(C)Cl)c1=O)c1ccccc1 (stereo not drawn) [Compound 438]
6: Plant response rating, Crabgrass (crabgrass; [4])
1: Wild oats plant response rating (wild oat; [5])
2: Crabgrass plant response rating (crabgrass; [7])
0: Wild oats plant response rating (wild oat; [1]) | Wild oats plant response rating (wild oat; [2]) | Plant response rating, Wild oats (wild oat; [3]) | Plant response rating, Wild oats (wild oat; [4]) | Wild oats plant response rating (wild oat; [7]) | Wild oats plant response rating (wild oat; [8]) | Wheat plant response rating (wheat; [1]) | Wheat plant response rating (wheat; [2]) | Plant response rating, Wheat (wheat; [3]) | Plant response rating, Wheat (wheat; [4]) | Wheat plant response rating (wheat; [5]) | Wheat plant response rating (wheat; [6]) | Wheat plant response rating (wheat; [7]) | Wheat plant response rating (wheat; [8]) | Plant response rating, Rice (0 to 10 scale, 0 is no effect, 10 is complete control) (rice; Rate 62 g/ha, flood test species, Pre-emergence, visual evaluation after twelve to sixteen days) | Rice plant response rating (0 to 10 scale, 0 is no effect, 10 is complete control) (rice; Rate 125 g/ha, under heading Pre-emergence, flood test species, visual evaluation after twelve to sixteen days) | Rice plant response rating (rice; Rate 250 g/ha, Pre-emergence (flood test species), scale 0 to 10, 0 is no effect, 10 is complete control) | Rice plant response rating (rice; [9])
4: Crabgrass plant response rating (crabgrass; [8])
3: Wild oats plant response rating (wild oat; [6]) | Plant response rating, Crabgrass (crabgrass; [3])
10: Crabgrass plant response rating (crabgrass; [6])
9: Crabgrass plant response rating (crabgrass; [2]) | Crabgrass plant response rating (crabgrass; [5])
8: Crabgrass plant response rating (crabgrass; [1])

CC(C)N(C(=O)n1oc(=O)n(Cc2ccccc2Cl)c1=O)c1ccc(F)cc1 [Compound 140]
4: Crabgrass plant response rating (crabgrass; [11]) | Rice plant response rating (rice; Rate 500 g/ha, listed under Postemergence (flood test species), scale 0 to 10)
0: Wild oats plant response rating (wild oat; [10]) | Wild oats plant response rating (wild oat; [11]) | Wild oats plant response rating (0 to 10 scale) (wild oat; [12]) | Wild oats plant response rating (wild oat; [14]) | Plant response rating, Wild oats (wild oat; [15]) | Crabgrass plant response rating (crabgrass; [14]) | Wheat plant response rating (wheat; [10]) | Wheat plant response rating (wheat; [11]) | Wheat plant response rating (0 to 10 scale) (wheat; [12]) | Wheat plant response rating (wheat; [5]) | Wheat plant response rating (wheat; [13]) | Wheat plant response rating (wheat; [14]) | Plant response rating, Wheat (wheat; [15]) | Wheat plant response rating (wheat; [16]) | Rice plant response rating (rice; Postemergence (flood test species), Rate 125 g/ha, scale of 0 to 10 where 0 is no effect and 10 is complete control) | Rice plant response rating (rice; Rate 62 g/ha, Postemergence section, flood test species, scale of 0 to 10 where 0 is no effect and 10 is complete control)
9: Plant response rating, Crabgrass (crabgrass; [15]) | Crabgrass plant response rating (crabgrass; [16])
5: Crabgrass plant response rating (crabgrass; [5])
6: Crabgrass plant response rating (0 to 10 scale) (crabgrass; [12])
1: Wild oats plant response rating (wild oat; [5]) | Wild oats plant response rating (wild oat; [13]) | Wild oats plant response rating (wild oat; [16]) | Crabgrass plant response rating (crabgrass; [10])
2: Plant response rating, Rice (rice; Rate 250 g/ha, Postemergence (flood test), scale 0 to 10, 0 is no effect, 10 is complete control)
10: Crabgrass plant response rating (crabgrass; [13])

CC(C)n1c(=O)on(C(=O)N(c2ccc(Cl)cc2Cl)C2CCC2)c1=O [Compound 319]
0: Wild oats plant response rating (wild oat; [3]) | Wild oats plant response rating (0 to 10 scale) (wild oat; Preemergence, Rate 125 g/ha) | Wild oats plant response rating (wild oat; [17]) | Wild oats plant response rating (wild oat; [18]) | Wild oats plant response rating (wild oat; [7]) | Wild oats plant response rating (wild oat; [19]) | Plant response rating, Wild oats (wild oat; [20]) | Crabgrass plant response rating (crabgrass; [3]) | Crabgrass plant response rating (0 to 10 scale) (crabgrass; Preemergence, Rate 125 g/ha) | Crabgrass plant response rating (crabgrass; [7]) | Crabgrass plant response rating (crabgrass; [19]) | Plant response rating, Crabgrass (crabgrass; [20]) | Wheat plant response rating (wheat; [3]) | Wheat plant response rating (0 to 10 scale) (wheat; Preemergence, Rate 125 g/ha) | Wheat plant response rating (wheat; [17]) | Wheat plant response rating (wheat; [18]) | Wheat plant response rating (wheat; [7]) | Wheat plant response rating (wheat; [19]) | Plant response rating, Wheat (wheat; [20]) | Rice plant response rating (rice; Rate 62 g/ha, headed Pre-emergence (flood test species), scale 0 to 10 (0 no effect, 10 complete control)) | Rice plant response rating (rice; Rate 125 g/ha, Pre-emergence, flood test species, scale 0 to 10 where 0 is no effect and 10 is complete control) | Rice plant response rating (rice; Rate 250 g/ha, Pre-emergence, flood-test species, scale 0 to 10, 0 is no effect, 10 is complete control) | Rice plant response rating (rice; [9])
3: Crabgrass plant response rating (crabgrass; [18])
2: Crabgrass plant response rating (crabgrass; [17])

Cc1cccc(Cl)c1-n1c(=O)on(C(=O)N(c2ccc(Cl)cc2)C(C)C)c1=O [Compound 54]
5: Crabgrass plant response rating (crabgrass; [26])
8: Crabgrass plant response rating (crabgrass; [24])
3: Plant response rating, Crabgrass (crabgrass; [17])
0: Wild oats plant response rating (wild oat; [21]) | Wild oats plant response rating (wild oat; [22]) | Plant response rating, Wild oats (wild oat; [23]) | Plant response rating, Wild oats (wild oat; [17]) | Wild oats plant response rating (wild oat; [24]) | Wild oats plant response rating (wild oat; [25]) | Wild oats plant response rating (wild oat; [26]) | Crabgrass plant response rating (crabgrass; [21]) | Crabgrass plant response rating (crabgrass; [25]) | Wheat plant response rating (wheat; [21]) | Wheat plant response rating (wheat; [22]) | Plant response rating, Wheat (wheat; [27]) | Plant response rating, Wheat (wheat; [23]) | Plant response rating, Wheat (wheat; [17]) | Wheat plant response rating (wheat; [24]) | Wheat plant response rating (wheat; [25]) | Wheat plant response rating (wheat; [26]) | Rice plant response rating (rice; [21]) | Rice plant response rating (rice; Rate 125 g/ha, Postemergence section (flood test species), scale 0 to 10, 0 no effect, 10 complete control) | Rice plant response rating (rice; Rate 500 g/ha, listed under Postemergence (flood test species), scale 0 to 10, 0 no effect, 10 complete control) | Rice plant response rating (rice; flood test, listed under Postemergence, Rate 250 g/ha, scale 0 to 10, 0 no effect, 10 complete control)
2: Crabgrass plant response rating (crabgrass; [22]) | Plant response rating, Crabgrass (crabgrass; [27]) | Plant response rating, Crabgrass (crabgrass; [23])
